Measurements: patent publication US20170362243A1, “BIARYLETHER IMIDAZOPYRAZINE BTK INHIBITORS” (MERCK SHARP & DOHME CORP., priority 2014, published 2017)

Target: T1, BTK enzyme (recombinant full-length BTK, hBTK) (Homo sapiens, UniProt Q06187)
T1 construct: recombinant protein from baculovirus-transfected Sf9 cells: full-length BTK, 6HIS-tag cleaved; 6HIS (cleaved yes); made in house; host or cells: baculovirus-transfected Sf9 cells
Test: Btk enzyme activity assay, LANCE TR-FRET
Type: biochemical
Conditions: 50 pM hBTK, 2 μM biotin-A5-peptide, 25 μM ATP, 60 minute compound & enzyme incubation, read-out: BTK binding IC50
Procedure: BTK enzymatic activity was determined with the LANCE (Lanthanide Chelate Excite) TR-FRET (Time-resolved fluorescence resonance energy transfer) assay. In this assay, the potency (IC50) of each compound was determined from an eleven point (1:3 serial dilution; final compound concentration range in assay from 1 μM to 0.017 nM) titration curve using the following outlined procedure. To each well of a black non-binding surface Corning 384-well microplate (Corning Catalog #3820), 5 nL of compound (2000 fold dilution in final assay volume of 10 μL) was dispensed, followed by the addition of 7.5 μL of 1× kinase buffer (50 mM Hepes 7.5, 10 mM MgCl2, 0.01% Brij-35, 1 mM EGTA, 0.05% BSA & 1 mM DTT) containing 5.09 pg/μL (66.67 pM) of BTK enzyme (recombinant protein from baculovirus-transfected Sf9 cells: full-length BTK, 6HIS-tag cleaved). Following a 60 minute compound & enzyme incubation, each reaction was initiated by the addition of 2.5 μL 1× kinase buffer containing 8 μM biotinylated “A5” peptide (Biotin-EQEDEPEGDYFEWLE-NH2) (SEQ.ID.NO.: 1), and 100 μM ATP. The final reaction in each well of 10 μL consists of 50 pM hBTK, 2 μM biotin-A5-peptide, and 25 μM ATP. Phosphorylation reactions were allowed to proceed for 120 minutes. Reactions were immediately quenched by the addition of 20 uL of 1× quench buffer (15 mM EDTA, 25 mM Hepes 7.3, and 0.1% Triton X-100) containing detection reagents (0.626 nM of LANCE-Eu-W1024-anti-phosphoTyrosine antibody, PerkinElmer and 86.8 nM of Streptavidin-conjugated Dylight 650, Dyomics/ThermoFisher Scientific). After 60 minutes incubation with detection reagents, reaction plates were read on a PerkinElmer EnVision plate reader using standard TR-FRET protocol. Briefly, excitation of donor molecules (Eu-chelate:anti-phospho-antibody) with a laser light source at 337 nm produces energy that can be transferred to Dylight-650 acceptor molecules if this donor:acceptor pair is within close proximity. Fluorescence intensity at both 665 nm (acceptor) and 615 nm (donor) are measured and a TR-FRET ratio calculated for each well (acceptor intensity/donor intensity). IC50 values were determined by 4 parameter robust fit of TR-FRET ratio values vs. (Log10) compound concentrations.
The following Table 3 provides specific IC50 values for all the examples. The IC50 values set forth below were determined according to Assay method described above.

T1 sequence (Q06187 whole entry): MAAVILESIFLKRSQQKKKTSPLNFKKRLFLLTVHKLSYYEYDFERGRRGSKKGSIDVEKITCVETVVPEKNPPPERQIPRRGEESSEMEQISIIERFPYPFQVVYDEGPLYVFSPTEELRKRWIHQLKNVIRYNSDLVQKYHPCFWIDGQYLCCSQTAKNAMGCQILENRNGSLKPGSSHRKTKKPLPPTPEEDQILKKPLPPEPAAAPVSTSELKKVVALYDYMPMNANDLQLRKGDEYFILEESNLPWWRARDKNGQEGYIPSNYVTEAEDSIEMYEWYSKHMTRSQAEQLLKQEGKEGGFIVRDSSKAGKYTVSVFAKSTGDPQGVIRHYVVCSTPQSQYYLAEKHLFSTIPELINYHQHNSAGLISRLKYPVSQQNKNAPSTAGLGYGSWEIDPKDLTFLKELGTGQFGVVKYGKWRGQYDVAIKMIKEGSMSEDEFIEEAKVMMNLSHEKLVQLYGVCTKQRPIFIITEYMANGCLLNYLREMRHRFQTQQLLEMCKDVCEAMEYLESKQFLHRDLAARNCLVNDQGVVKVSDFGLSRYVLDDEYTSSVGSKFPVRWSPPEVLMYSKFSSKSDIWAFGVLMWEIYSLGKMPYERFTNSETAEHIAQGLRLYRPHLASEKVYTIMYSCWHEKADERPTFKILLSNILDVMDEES

SMILES | IC50 [nM]
Nc1nccn2c(N3CCC[C@H](C(=O)O)C3)nc(-c3ccc(Oc4ccccc4)cc3)c12 [Example 1, (S)-1-(8-amino-1-(4-phenoxyphenyl)imidazo[1,5-a]pyrazin-3-yl)piperidine-3-carboxylic acid] | 2.7
Nc1nccn2c1c(-c1ccc(Oc3cccc(F)c3)cc1)nc2[C@H]1CC[C@@H](C(=O)O)CC1 [Example 11, cis-4-{8-amino-1-[4-(3-fluorophenoxy)phenyl]imidazo[1,5-a]pyrazin-3-yl}cyclohexanecarboxylic acid] | 14.3
CC(C)C1(C(=O)O)CC[C@H](c2nc(-c3ccc(Oc4cccc(F)c4)cc3)c3c(N)nccn23)C1 (stereo in doubt) [Example 5, (1R,3S)-3-{8-amino-1-[4-(3-fluorophenoxy)phenyl]imidazo[1,5-a]pyrazin-3-yl}-1-(1-methylethyl)cyclo-pentanecarboxylic acid] | 1.4
Nc1nccn2c([C@@H]3CCC[C@@H](C(=O)O)C3)nc(-c3ccc(Oc4ccccc4)cc3)c12 (relative stereo) [Example 30, Trans-3-(8-amino-1-(4-phenoxyphenyl)imidazo[1,5-a]pyrazin-3-yl)cyclohexanecarboxylic acid] | 0.18
C[C@@]1(C(=O)O)CCC[C@H](c2nc(-c3ccc(Oc4cccc(F)c4)cc3)c3c(N)nccn23)C1 [Example 16, (1R,3S)-3-{8-amino-1-[4-(3-fluorophenoxy)phenyl]imidazo[1,5-a]pyrazin-3-yl}-1-methylcyclohexane-carboxylic acid] | 3.3
CC(C)[C@@]1(C(=O)O)CCC(c2nc(-c3ccc(Oc4cccc(F)c4)cc3)c3c(N)nccn23)C1 (stereo in doubt) [Example 4, (1R,3S)-3-{8-amino-1-[4-(3-fluorophenoxy)phenyl]imidazo[1,5-a]pyrazin-3-yl}-1-(1-methylethyl)cyclo-pentanecarboxylic acid] | 4.4
Nc1nccn2c([C@@H]3CCC[C@H](C(=O)O)C3)nc(-c3ccc(Oc4ccccc4)cc3)c12 [Example 9, (1S,3R)-3-[8-amino-1-(4-phenoxyphenyl)imidazo[1,5-a]pyrazin-3-yl]cyclohexanecarboxylic acid] | 7.1
C[C@]1(C(=O)O)CCC[C@@H](c2nc(-c3ccc(Oc4cccc(F)c4)cc3)c3c(N)nccn23)C1 [Example 13, (1S,3R)-3-{8-amino-1-[4-(3-fluorophenoxy)phenyl]imidazo[1,5-a]pyrazin-3-yl}-1-methylcyclohexanecarboxylic acid] | 5.9
Nc1nccn2c1c(-c1ccc(Oc3ccccc3)cc1)nc2[C@H]1CC[C@H](C(=O)O)CC1 [Example 17, trans-4-[8-amino-1-(4-phenoxyphenyl)imidazo [1,5-a]pyrazin-3-yl]cyclohexane-carboxylic acid] | 0.5
CC(C)[C@@]1(C(=O)O)CC[C@H](c2nc(-c3ccc(Oc4cccc(F)c4)cc3)c3c(N)nccn23)C1 [Example 3, (1R,3S)-3-{8-amino-1-[4-(3-fluorophenoxy)phenyl]imidazo[1,5-a]pyrazin-3-yl}-1-(1-methylethyl)cyclo-pentanecarboxylic acid] | 19.5

Next, values leading:

IC50 [nM] | SMILES
12.3 | C[C@]1(C(=O)O)CC[C@H](c2nc(-c3ccc(Oc4ccccc4)cc3)c3c(N)nccn32)CC1 [Example 25, Trans-4-[8-amino-1-(4-phenoxyphenyl)imidazo[1,5-a]pyrazin-3-yl]-1-methylcyclohexane carboxylic acid]
0.3 | Nc1nccn2c(C34C5C6C3C3C4C5C63C(=O)O)nc(-c3ccc(Oc4ccccc4)cc3)c12 (stereo not drawn) [Example 23, 4-(8-amino-1-(4-phenoxyphenyl)imidazo[1,5-a]pyrazin-3-yl)cubane-1-carboxylic acid]
12.5 | Nc1nccn2c(C3CCC(C(=O)O)O3)nc(-c3ccc(Oc4ccccc4)cc3)c12 (single isomer, unassigned) [Example 27, 5-[8-amino-1-(4-phenoxyphenyl)imidazo[1,5-a]pyrazin-3-yl]tetrahydrofuran-2-carboxylic acid (E2)]
79.6 | Nc1nccn2c(C3(C(=O)O)CCOCC3)nc(-c3ccc(Oc4ccccc4)cc3)c12 [Example 24, 4-[8-amino-1-(4-phenoxyphenyl)imidazo[1,5-a]pyrazin-3-yl]tetrahydro-2H-pyran-4-carboxylic acid]
1.6 | CC1(C(=O)O)CCCC(c2nc(-c3ccc(Oc4ccccc4)cc3)c3c(N)nccn23)C1 (stereo not drawn) [Example 10, 3-[8-amino-1-(4-phenoxyphenyl)imidazo [1,5-a]pyrazin-3-yl]-1-mehtylcyclohexane-carboxylic acid]
0.7 | CC1(C)[C@@H](c2nc(-c3ccc(Oc4ccccc4)cc3)c3c(N)nccn23)CC[C@@]1(C)C(=O)O [Example 8, (1R,3S)-3-[8-amino-1-(4-phenoxyphenyl)imidazo [1,5-a]pyrazin-3-yl]-1,2,2-trimethylcyclopenta-carboxylic acid]
200 | CCC[C@]1(C(=O)O)CCC[C@@H](c2nc(-c3ccc(Oc4ccccc4)cc3)c3c(N)nccn23)C1 [Example 19, (1S,3R)-3-[8-amino-1-(4-pheenoxyphenyl)imidazo[1,5-a]pyrazin-3-yl]-1-propylcyclohexane-carboxylic acid]
4.9 | CCC[C@@]1(C(=O)O)CCC[C@@H](c2nc(-c3ccc(Oc4ccccc4)cc3)c3c(N)nccn23)C1 [Example 20, (1R,3R)-3-[8-amino-1-(4-phenoxyphenyl)imidazo[1,5-a]pyrazin-3-yl]-1-propylcyclohexane-carboxylic acid]
12.5 | Nc1nccn2c(C3CCC(C(=O)O)O3)nc(-c3ccc(Oc4ccccc4)cc3)c12 (single isomer, unassigned) [Example 26, 5-[8-amino-1-(4-phenoxyphenyl)imidazo[1,5-a]pyrazin-3-yl]tetrahydrofuran-2-carboxylic acid (E1)]
1.3 | C[C@@]1(C(=O)O)CCC[C@H](c2nc(-c3ccc(Oc4ccccc4)cc3)c3c(N)nccn23)C1 [Example 15, (1R,3S)-3-[8-amino-1-(4-phenoxyphenyl)imidazo [1,5-a]pyrazin-3-yl]-1-methylcyclohexane-carboxylic acid]
0.23 | CC1(C(=O)O)CCC(C)(c2nc(-c3ccc(Oc4ccccc4)cc3)c3c(N)nccn23)C1 (single isomer, unassigned) [Example 28, 3-[8-amino-1-(4-phenoxyphenyl)imidazo[1,5-a]pyrazin-3-yl]-1,3-dimethylcyclo-pentanecarboxylic acid (E1)]
0.09 | Nc1nccn2c(C34CCC(C(=O)O)(CC3)CC4)nc(-c3ccc(Oc4ccccc4)cc3)c12 [Example 6, 4-[8-amino-1-(4-phenoxyphenyl)imidazo[1,5-a]pyrazin-3-yl]bicyclo[2.2.2]octane-1-carboxylic acid]
2.1 | CC(C)(C(=O)O)C1CCC(c2nc(-c3ccc(Oc4ccccc4)cc3)c3c(N)nccn23)C1 (stereo not drawn) [Example 7, 2-{3-[8-amino-1-(4-phenoxyphenyl)imidazo[1,5-a]pyrazin-3-yl]cyclopentyl}-2-methylpropanoic acid]
2.4 | C[C@]1(C(=O)O)CCC[C@@H](c2nc(-c3ccc(Oc4ccccc4)cc3)c3c(N)nccn23)C1 [Example 14, (1S,3R)-3-[8-amino-1-(4-phenoxyphenyl)imidazo [1,5-a]pyrazin-3-yl]-1-methylcyclohexane-carboxylic acid]
